Assay results published in patent publication US9801956B2, “PSMA-targeted NIR dyes and their uses” (On Target Laboratories, LLC, priority 2015, dated 2017).

molecular target: T1, PSMA (Homo sapiens, UniProt Q04609); assay: Relative binding affinity of DUPA-NIR conjugates versus 100 nM DUPA-FITC (14) on PSMA-positive 22Rv1 human prostate cancer cells, flow cytometry; conditions: PSMA-positive 22Rv1 cells, 1 h at 37° C., 100 nM DUPA-FITC competitor
T1 construct: PSMA-positive 22Rv1 human prostate cancer cells; endogenous in cells; host or cells: 22Rv1 human prostate cancer cells
T1 sequence (Q04609 whole entry): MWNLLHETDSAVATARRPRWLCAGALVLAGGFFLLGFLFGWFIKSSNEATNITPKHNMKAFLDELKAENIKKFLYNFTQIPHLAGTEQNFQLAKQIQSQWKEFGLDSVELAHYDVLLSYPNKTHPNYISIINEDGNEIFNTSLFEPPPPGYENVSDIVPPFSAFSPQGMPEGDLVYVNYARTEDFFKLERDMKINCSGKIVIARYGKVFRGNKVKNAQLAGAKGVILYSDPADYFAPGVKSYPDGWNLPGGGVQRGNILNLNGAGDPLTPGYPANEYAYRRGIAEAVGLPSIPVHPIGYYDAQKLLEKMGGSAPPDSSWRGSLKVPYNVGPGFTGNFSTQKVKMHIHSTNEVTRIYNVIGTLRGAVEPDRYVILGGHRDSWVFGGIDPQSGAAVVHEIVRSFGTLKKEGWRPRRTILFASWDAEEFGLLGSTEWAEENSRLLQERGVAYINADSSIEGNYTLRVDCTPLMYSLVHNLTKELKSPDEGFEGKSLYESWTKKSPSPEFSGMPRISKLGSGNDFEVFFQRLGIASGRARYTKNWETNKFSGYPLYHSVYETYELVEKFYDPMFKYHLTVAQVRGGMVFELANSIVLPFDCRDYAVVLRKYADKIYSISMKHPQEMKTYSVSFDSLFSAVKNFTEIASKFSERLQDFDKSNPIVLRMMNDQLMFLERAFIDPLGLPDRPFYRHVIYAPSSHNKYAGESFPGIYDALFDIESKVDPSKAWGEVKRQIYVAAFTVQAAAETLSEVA
Protocol: (§1) FIG. 3—Relative binding affinities of DUPA-NIR conjugates 1-9 with respect to DUPA-FITC (14). PSMA-positive 22Rv1 human prostate cancer cells were incubated for 1 h at 37° C. in the presence of 100 nM DUPA-FITC with increasing concentrations of DUPA-NIR conjugates. […] Cell bound fluorescence was assayed as using flow cytometry.
as §1, with “6—Relative” for “3—Relative”, “with aromatic amino acids linkers” for “1-9”
as §1, with “14—Relative” for “3—Relative”, “conjugates” for “conjugates 1-9”
PSMA-positive 22Rv1 human prostate cancer cells were incubated for 1 h at 37° C. in the presence of 100 nM DUPA-FITC with increasing concentrations of DUPA-NIR conjugates. […] Cell bound fluorescence was assayed as using flow cytometry.
FIG. 23—Relative binding affinities of DUPA-NIR conjugates with respect to DUPA-FITC (14). […] Cell bound fluorescence was assayed as using flow cytometry.
FIG. 31—Relative binding affinities of DUPA-NIR conjugates with respect to DUPA-FITC (14). […] Cell bound fluorescence was assayed as using flow cytometry.
FIG. 36—Relative binding affinities of PSMA-targeted NIR conjugates with respect to DUPA-FITC (14). […] Cell bound fluorescence was assayed as using flow cytometry.
FIG. 3 Relative binding affinities of DUPA-NIR conjugates 1-9 with respect to DUPA-FITC (14). […] Cell bound fluorescence was assayed as using flow cytometry.
FIG. 24: Relative binding affinities of DUPA-NIR conjugates with respect to DUPA-FITC (14). […] Cell bound fluorescence was assayed as using flow cytometry. […]

Question: `CC1(C)C(=CC=C2CCCC(C=CC3=[N+](CCCCS(=O)(=O)[O-])c4ccccc4C3(C)C)=C2SCC(NC(=O)C(Cc2ccccc2)NC(=O)C(Cc2ccccc2)NC(=O)CCCCCCCNC(=O)CCC(NC(=O)NC(CCC(=O)O)C(=O)O)C(=O)O)C(=O)O)N(CCCCS(=O)(=O)O)c2ccccc21` (stereo not drawn) [Compound 64] was tested. Which Kd did it give?
Answer: Its Kd is 319 nM.

Question: `CC1(C)C(=CC=C2CCCC(C=CC3=[N+](CCCCS(=O)(=O)[O-])c4ccccc4C3(C)C)=C2Oc2ccc(CC(NC(=O)C(CCCNC(=N)N)NC(=O)C(Cc3ccccc3)NC(=O)CCCCCCCNC(=O)CCC(NC(=O)NC(CCC(=O)O)C(=O)O)C(=O)O)C(=O)O)cc2)N(CCCCS(=O)(=O)O)c2ccccc21` (stereo not drawn) [Compound 65] was tested. Which Kd did it give?
Answer: The Kd was 983 nM.

Question: How did the Kd turn out when `CC1(C)C(=CC=C2CCOC(C=CC3=[N+](CCCCS(=O)(=O)[O-])c4ccc(S(=O)(=O)O)cc4C3(C)C)=C2c2ccc(C(=O)NCCNC(=O)C(Cc3ccccc3)NC(=O)CCCCCCCNC(=O)CCC(NC(=O)NC(CCC(=O)O)C(=O)O)C(=O)O)cc2)N(CCCCS(=O)(=O)O)c2ccc(S(=O)(=O)O)cc21` (stereo not drawn) [Compound 62] was run?
Answer: The Kd was 141 nM.
